Measured values from US7109338B2, “1,2-disubstituted 1,4-dihydro-4-oxoquinoline compounds” (priority 1999, dated 2006).
Converted amounts (≈) assume the structure as drawn.

Legend:
[1] = system: echovirus type 11 (Echo 11, Gregory); assay: In vitro anti-picornavirus activity (MTT), Echo 11; assay type: cell-based; details: HeLa-S3 cells, MTT method, 37° C.
HRV 89 (41617-Gallo) = assay: Anti-rhinovirus activity (MTT), HRV89; assay type: cell-based, human rhinovirus; design: Anti-Rhinovirus activity, HRV89: unit not given here
[2] = system: human rhinovirus type 1B (HRV 1B, B632); assay: Anti-rhinovirus activity (MTT), HRV1B; assay type: cell-based; design: Anti-Rhinovirus activity, HRV1B: unit not given here
[3] = system: Poliovirus type 1 (Polio 1, Sabin); assay: microbe, parasite or virus in culture; assay type: cell-based
HRV14 (1059) = assay: Anti-rhinovirus activity (MTT), HRV14; assay type: cell-based, human rhinovirus
HRV 2 (HGP) = assay: Anti-rhinovirus activity (MTT), HRV2; assay type: cell-based, human rhinovirus; design: Anti-Rhinovirus activity, HRV2: unit not given here
[4] = system: coxsackievirus type B4 (CB4,JVB); assay: In vitro anti-picornavirus activity (MTT), CB4; assay type: cell-based; details: HeLa cells, MTT method, 37° C.
HRV1A (E28) = assay: Anti-rhinovirus activity (MTT), HRV1A; assay type: cell-based, human rhinovirus
[5] = system: coxsackievirus type A7 (CA7); assay: In vitro anti-picornavirus activity (MTT), CA7; assay type: cell-based; details: HeLa-S3 cells, MTT method, 37° C.
HRV16 (11757) = assay: Anti-rhinovirus spectrum (MTT), HRV16; assay type: cell-based, human rhinovirus; details: Table VII, rhinovirus serotype HRV16
HRV36 (342H) = assay: Anti-rhinovirus spectrum (MTT), HRV36; assay type: cell-based, human rhinovirus; details: Table VII, rhinovirus serotype HRV36
HRV33 (1200) = assay: Anti-rhinovirus spectrum (MTT), HRV33; assay type: cell-based, human rhinovirus; details: Table VII, rhinovirus serotype HRV33
HRV31 (41F) = assay: Anti-rhinovirus spectrum (MTT), HRV31; assay type: cell-based, human rhinovirus; details: Table VII, rhinovirus serotype HRV31
[6] = system: clinical isolate (89229T); assay: microbe, parasite or virus in culture; assay type: cell-based, human rhinovirus; details: Table VII, clinical isolate (89229T)
HRV10 (204-CV14) = assay: Anti-rhinovirus spectrum (MTT), HRV10; assay type: cell-based, human rhinovirus; details: Table VII, rhinovirus serotype HRV10
HRV50(A2#58) = assay: Anti-rhinovirus spectrum (MTT), HRV50; assay type: cell-based, human rhinovirus; details: Table VII, rhinovirus serotype HRV50
HRV3(FEB) = assay: Anti-rhinovirus spectrum (MTT), HRV3; assay type: cell-based, human rhinovirus; details: Table VII, rhinovirus serotype HRV3
HRV41 (56110) = assay: Anti-rhinovirus spectrum (MTT), HRV41; assay type: cell-based, human rhinovirus; details: Table VII, rhinovirus serotype HRV41
HRV8(MRH) = assay: Anti-rhinovirus spectrum (MTT), HRV8; assay type: cell-based, human rhinovirus; details: Table VII, rhinovirus serotype HRV8
HRV21 (47) = assay: Anti-rhinovirus spectrum (MTT), HRV21; assay type: cell-based, human rhinovirus; details: Table VII, rhinovirus serotype HRV21
HRV61 (6669-CV39) = assay: Anti-rhinovirus spectrum (MTT), HRV61; assay type: cell-based, human rhinovirus; details: Table VII, rhinovirus serotype HRV61
HRV13 (353) = assay: Anti-rhinovirus spectrum (MTT), HRV13; assay type: cell-based, human rhinovirus; details: Table VII, rhinovirus serotype HRV13
HRV29 (5582) = assay: Anti-rhinovirus spectrum (MTT), HRV29; assay type: cell-based, human rhinovirus; details: Table VII, rhinovirus serotype HRV29
HRV39 (209) = assay: Anti-rhinovirus spectrum (MTT), HRV39; assay type: cell-based, human rhinovirus; details: Table VII, rhinovirus serotype HRV39
HRV5 = assay: Anti-rhinovirus spectrum (MTT), HRV5; assay type: cell-based, human rhinovirus; details: Table VII, rhinovirus serotype HRV5
HeLa (Ohio strain)cells = assay: Cytotoxicity (MTT, without virus), HeLa(Ohio); details: HeLa(Ohio), no virus, incubated for 4 days
HRV32 (363) = assay: Anti-rhinovirus spectrum (MTT), HRV32; assay type: cell-based, human rhinovirus; details: Table VII, rhinovirus serotype HRV32
HeLa cells = assay: Cytotoxicity (MTT, without virus), HeLa; details: HeLa, no virus, incubated for 4 days
HeLa-S3 cells = assay: Cytotoxicity (MTT, without virus), HeLa-S3; details: HeLa-S3, no virus, incubated for 4 days
[7] = HeLa (Ohio strain) cells, MTT method, 33° C.

CCn1c2c(c(=O)c3cc(C(C)C)ccc31)C(N)c1ccccc1-2.Cl.Cl (centres unmarked)
melting point: 200 °C (dec.)

CCn1c2c(c(=O)c3cc(C(C)C)ccc31)C(C)c1ccccc1-2 (centres unmarked) [Compound C40, 5-Ethyl-8-isopropyl-11-methyl-5,10-dihydro-11H-indeno[1,2-b]quinolin-10-one]
IC50 ([1]; Enterovirus B): 0.24 µg/mL (≈ 0.756 µM) | IC50 (HRV 89 (41617-Gallo); Human rhinovirus sp., HRV89, HeLa (Ohio strain) cells, MTT method, 33° C., read-out: IC50 HRV89): 0.56 µg/mL (≈ 1.76 µM) | IC50 ([2]; Human rhinovirus sp., HRV1B, HeLa (Ohio strain) cells, MTT method, 33° C., read-out: IC50 HRV1B): 0.51 µg/mL (≈ 1.61 µM) | IC50 ([3]; Enterovirus C, HeLa S3, read-out: IC50 Polio 1): 0.54 µg/mL (≈ 1.7 µM) | IC50 (HRV14 (1059); Human rhinovirus sp., HRV14, HeLa (Ohio strain) cells, MTT method, 33° C., read-out: IC50 HRV 14): 1.1 µg/mL (≈ 3.47 µM) | melting point: 152 to 154 °C | IC50 (HRV 2 (HGP); Human rhinovirus sp., HRV2, HeLa (Ohio strain) cells, MTT method, 33° C., read-out: IC50 HRV2): 0.54 µg/mL (≈ 1.7 µM) | IC50 ([4]; Coxsackievirus): 1.7 µg/mL (≈ 5.36 µM) | IC50 (HRV1A (E28); Human rhinovirus sp., HRV1A, HeLa, read-out: IC50 HRV 1A): > 3.3 µg/mL | IC50 ([5]; Coxsackievirus): > 3.3 µg/mL

Cc1c(-c2ccccc2)n(-c2cccc(F)c2)c2ccc(C(C)C)cc2c1=O [Compound A322]
Anti-Rhinovirus activity, HRV16 (HRV16 (11757)): 0.030 | Anti-Rhinovirus activity, HRV36 (HRV36 (342H)): 0.085 | Anti-Rhinovirus activity, HRV33 (HRV33 (1200)): 0.17 | Anti-Rhinovirus activity, HRV31 (HRV31 (41F)): 0.045 | Anti-rhinovirus activity Clinically isolated strain [6]: 0.017 | IC50 HRV89 (HRV 89 (41617-Gallo); [7]): 0.034 µg/mL (≈ 0.0915 µM) | Anti-Rhinovirus activity, HRV89 (HRV 89 (41617-Gallo); Table VII, rhinovirus serotype HRV89): 0.034 | IC50 HRV1B [2, 7]: 0.18 µg/mL (≈ 0.485 µM) | Anti-Rhinovirus activity, HRV1B ([2]; Table VII, rhinovirus serotype HRV1B): 0.18 | Anti-Rhinovirus activity, HRV14 (HRV14 (1059); Table VII, rhinovirus serotype HRV14): >1.0 | IC50 HRV2 (HRV 2 (HGP); [7]): 0.030 µg/mL (≈ 0.0808 µM) | Anti-Rhinovirus activity, HRV2 (HRV 2 (HGP); Table VII, rhinovirus serotype HRV2): 0.030 | Anti-Rhinovirus activity, HRV10 (HRV10 (204-CV14)): 0.013 | Anti-Rhinovirus activity, HRV50 (HRV50(A2#58)): 0.023 | Anti-Rhinovirus activity, HRV3 (HRV3(FEB)): >1.0 | Anti-Rhinovirus activity, HRV1A (HRV1A (E28); Table VII, rhinovirus serotype HRV1A, same method as above): >1.0 | Anti-Rhinovirus activity, HRV41 (HRV41 (56110)): 0.034 | Anti-Rhinovirus activity, HRV8 (HRV8(MRH)): >1.0 | Anti-Rhinovirus activity, HRV21 (HRV21 (47)): 0.048 | Anti-Rhinovirus activity, HRV61 (HRV61 (6669-CV39)): 0.29 | Anti-Rhinovirus activity, HRV13 (HRV13 (353)): 0.029 | Anti-Rhinovirus activity, HRV29 (HRV29 (5582)): 0.080 | Anti-Rhinovirus activity, HRV39 (HRV39 (209)): 0.012 | Anti-Rhinovirus activity, HRV5 (HRV5): >1.0 | Cytotoxicity CC50 HeLa(Ohio) (HeLa (Ohio strain)cells): >1 µg/mL | Anti-Rhinovirus activity, HRV32 (HRV32 (363)): 0.020

CCc1ccc2c(c1)Cc1c-2n(C)c2ccc(C(C)C)cc2c1=O [Compound B8]
IC50 Echo 11 [1]: 0.17 µg/mL (≈ 0.536 µM) | IC50 HRV89 (HRV 89 (41617-Gallo); [7]): 0.12 µg/mL (≈ 0.378 µM) | IC50 HRV1B [2, 7]: 0.24 µg/mL (≈ 0.756 µM) | IC50 Polio 1 [3]: 0.19 µg/mL (≈ 0.599 µM) | IC50 HRV 14 (HRV14 (1059); [7]): 0.40 µg/mL (≈ 1.26 µM) | IC50 HRV2 (HRV 2 (HGP); [7]): 0.22 µg/mL (≈ 0.693 µM) | IC50 CB4 [4]: 0.60 µg/mL (≈ 1.89 µM) | IC50 HRV 1A (HRV1A (E28); [7]): >1 µg/mL | Cytotoxicity CC50 HeLa (HeLa cells): >1 µg/mL | Cytotoxicity CC50 HeLa-S3 (HeLa-S3 cells): >1 µg/mL | Cytotoxicity CC50 HeLa(Ohio) (HeLa (Ohio strain)cells): >1 µg/mL | IC50 CA7 [5]: 0.70 µg/mL (≈ 2.21 µM)

CCn1c2c(c(=O)c3cc(C(C)C)ccc31)C(OC)(c1ccccc1)c1ccccc1-2 (centres unmarked)
melting point: 237 to 239 °C
